The text below walks through data of patent EP4212151B1, “STILBENE, FLAVONOL OR CURCUMIN COMPOUNDS FOR USE IN THE TREATMENT OF AGE-RELATED MACULAR DEGENERATION (AMD; ARMD)” (Knepper, Paul A., priority 2022, dated 2023).

SMILES strings stand for the structures. Several values for one entry are separate records, joined by “and”; a condition that tells them apart may be missing. Equal values may be shown once. Read-outs that look alike come from different tables or passages of the source.

Data set [1] deals with Dry AMD Subjects. As to the kind of experiment: Drusen volume by OCT (manual segmentation, ImageJ) in dry AMD subjects, oral treatment for 18 months. Conditions: oral C 2660 mg/day or RQC 200/240/2660 mg/day; for Drusen Volume % Change: 18 months vs baseline; for Drusen Volume, 18 Months: after 18 months. The class given is in vivo, human. The text has this: As stated hereinabove, dry AMD is a common disease characterized by retinal pathology. A typical finding of dry AMD is the presence of drusen and/or geographic atrophy. TABLE 1 below depicts drusen volume at baseline and after 18 months according to drusen size in all participants (C or RQC). […] To compare the changes in drusen volume found in this study in subjects taking oral curcumin against what would be expected over the natural course of the disease, optical coherence tomography (OCT) scans were evaluated. OCT is a new retinal imaging technology which is useful to analyze drusen volume and geographic atrophy. Each subject was scanned 6 months before treatment. This allowed for the examination of the natural history of a subject's drusen progression compared to progression with treatment. Standard deviation (SD) is expressed in mm^3. Statistical significance was determined by Wilcoxon Rank Sum test. Drusen volume was measured by manual segmentation using ImageJ software. Drusen size was determined by the widest width of the drusen and expressed in µm. […]

For data set [2], the system named is Dry AMD Subjects. As to the kind of experiment: Geographic atrophy area and growth rate in dry AMD subjects, Phase 1 study, 12 months. It is filed as in vivo, human. The method, then:
The effect of RQC and curcumin on geographic atrophy growth was evaluated in a Phase 1 study (TABLE 5, below) TABLE 5.
The expected untreated GA growth rate reported in the literature is 1.20 mm^2/year (or 0.18 mm/year adjusted for baseline lesion area). […] The decrease in GA growth rate was highly significant (p = 0.0004) compared with untreated samples [Yehoshua, et al., 2011] and remained highly significant when adjusted for differences in baseline lesion area (p = 0.0001). […]

The test system of data set [3] is superactivated platelets (SAPs). As to the kind of experiment: In-vitro flow cytometry platelet assay: superactivated platelets (SAP% of all platelets) after thrombin and convulxin; combination index by CompuSyn. It is filed as cell-based. To be noted: Homo sapiens; for IC50: individually (single agent), read-out: IC50 for the reduction of SAPs; for inhibition at 0.01 µM: single agent 0.01 µM; for inhibition at 0.01 µM / inhibition at 0.1 µM / inhibition at 1 µM / inhibition at 5 µM / inhibition at 10 µM: read-out: % change; for inhibition at 0.1 µM: single agent 0.1 µM; for inhibition at 1 µM: single agent 1 µM; for inhibition at 5 µM: single agent 5 µM; for inhibition at 10 µM: single agent 10 µM. From the text: Briefly, platelet-rich plasma (PRP) from patients with age-related macular degeneration (n = 9) are isolated from whole blood and challenged using dual agonists thrombin and convulxin (collagen substitute) to stimulate superactivated platelets (SAPs). SAPs are defined as positive for surface fibrinogen and negative for activated integrin αIIbβ3, whereas activated platelets are defined as negative for surface fibrinogen and positive for activated integrin αIIbβ3. Surface fibrinogen is detected by pre-treating platelets with biotinylated-fibrinogen (5 µg/mL) followed by staining with any common fluorophore conjugated to streptavidin. The streptavidin-fluorophore complex binds to the biotin-fibrinogen complex present on SAPs but not activated platelets due to the differing composition of charged surface proteins. Activated integrin αIIbβ3 - characteristic of activated platelets - is detected using the PAC-1 antibody conjugated to any compatible fluorophore. […] The effect of RQC on SAPs is determined by pre-treating diluted PRP samples with combinations of R, Q, and/or C for 5 minutes at 37°C followed by challenge with thrombin and convulxin for 5 minutes at 37°C. The samples are then stained with the fluorophore-conjugates and fixed in 3% formalin before analysis using a flow cytometer. SAP percentage is calculated as a percentage of all platelets. The effect size of RQC is determined by the change ion SAP percentage before and after treatment with RQC and is used as input to calculate drug synergy using the CompuSyn software developed by Chou, et al. Drug synergy, additivism, and antagonism are defined as a combination index (CI) score less than, equal to, or greater than 1, respectively. The level of drug synergy can be further stratified by quantile, tertile, or quartile in cases where numerous synergistic doses are compared.
The average combination index values of low, medium, and high doses of RQC for the inhibition of SAPs in AMD subjects was determined. The Combination Index (CI) theorem derived by Chou-Talalay [Chou, 2010] was calculated for each combination drug treatment of R, Q, and C. The CI is useful in quantifying levels of synergism and antagonism. The theorem is based on the median-effect equation to provide a common link between a single entity and multiple entities. A CI value < 1 indicates synergism, a CI equal to 1 indicates additivity, and a CI > 1 indicates antagonism. RQC was very effective in low, medium, and high doses.
R, Q, and C at three different dose levels each were tested in all possible combinations, resulting in 27 possible double and 27 possible triple combinations within each subject. The doses tested were R (1, 5, and 10 µM), Q (1, 5, and 10 µM), and C (0.01, 0.1, and 1 µM) and the effect was based on the inhibition of SAPs. To obtain the mean number of synergistic doses in each cohort, the average CI score for each dose combination was calculated within each cohort, producing a set of 27 double combination CI scores and 27 triple combination CI scores per cohort. Out of each set of 27 dose combinations, the number of CI scores under 0.8 (highly synergistic) was counted and reported here. For example, in control subjects 5 out of 27 possible double combinations were synergistic while 25 out of 27 possible triple combinations were synergistic based on the mean CI for each dose in the cohort.
(A flow cytometer gives signals particle by particle.)

The conditions of data set [4]: cited from earlier work; for Half-life: human, in vivo; for Bioavailability: oral.
For data set [5] the following is noted: cited from earlier work; for maximum dose (highest dose evaluated in a repeated-dose clinical trial and found safe and tolerable): human, in vivo; for dose found well tolerated, low or no toxicity: clinical trials, doses as high as.
Where [6] appears, read: drusen ≥ 250 µm, listed as curcumin.

Take `COc1cc(/C=C/C(=O)CC(=O)/C=C/c2ccc(O)c(OC)c2)ccc1O` [Curcumin, (1E,6E)-1,7-bis(4-Hydroxy-3-methoxyphenyl)-1,6-heptadiene-3,5-dione]: the “Drusen Volume % Change” value in data set [1] (All drusen) was -13.0%; in data set [1] (drusen 63-124 µm) it was 0.0%; in data set [1] (drusen 125-249 µm) it was -1.6%; in data set [1] (drusen ≥ 250 µm) it was -20.0%; in data set [1] (setting [6]), -30.0% and -20.0%. For the same molecule, the “Drusen Volume, 18 Months” value in data set [1] (All drusen) was 8.70 mm^3; in data set [1] (All drusen, listed as curcumin), 8.7 (± 1.6) mm^3; in data set [1] (drusen 63-124 µm), 0.08 mm^3; in data set [1] (drusen 125-249 µm), 3.70 mm^3; in data set [1] (drusen ≥ 250 µm), 6.00 mm^3; in data set [1] (setting [6]) it was 6.00 (± 1.30) mm^3. The “Drusen Volume, Baseline” value was 10.1 mm^3 in data set [1] (All drusen); 10.1 (± 1.60) mm^3 in data set [1] (All drusen, listed as curcumin); 0.08 mm^3 in data set [1] (drusen 63-124 µm); 3.80 mm^3 in data set [1] (drusen 125-249 µm); 7.50 mm^3 in data set [1] (drusen ≥ 250 µm); 0.75 (± 1.30) mm^3 in data set [1] (setting [6]). The “Growth Rate (mm^2/y)” value is 0.68 ± 0.79 mm^2/y in data set [2] (GA, mean of arm, 12 months of treatment); 0.68 mm^2/y in data set [2] (GA, mean of arm, 12 months of treatment, listed as curcumin); 1.462 mm^2/y and 1.258 mm^2/y and -0.037 mm^2/y and 0.037 mm^2/y in data set [2] (geographic atrophy, individual eyes, 12 months, listed as C); 0.00 ± 0.05 mm^2/y in data set [2] (nascent GA (nGA), mean of arm, 12 months of treatment); 0.005 mm^2/y in data set [2] (nascent GA (nGA), mean of arm, 12 months of treatment, listed as curcumin). For the same molecule, the “Baseline Area (mm^2)” value in data set [2] (GA, mean of arm, baseline) was 1.08 ± 1.10 mm^2; in data set [2] (nascent GA (nGA), mean of arm, baseline), 0.14 ± 0.01 mm^2. Besides, the “Growth Rate (mm/y)” value in data set [2] (GA, mean of arm, square root transformed (adjusted for baseline lesion area), 12 months) was 0.21 ± 0.25 mm/y; in data set [2] (GA, mean of arm, square root transformed (adjusted for baseline lesion area), 12 months, listed as curcumin), 0.21 mm/y; in data set [2] (geographic atrophy, individual eyes, square root transformed, 12 months, listed as C) it was 0.373 mm/y and 0.465 mm/y and -0.046 mm/y and 0.055 mm/y; in data set [2] (nascent GA (nGA), mean of arm, square root transformed (adjusted), 12 months) it was 0.01 ± 0.07 mm/y; in data set [2] (nascent GA (nGA), mean of arm, square root transformed (adjusted), 12 months, listed as curcumin), 0.01 mm/y. The “Area (mm^2), Baseline” value in data set [2] (geographic atrophy, individual eyes (subject c0, eye c2, GA category c7), baseline, listed as C) was 1.794 mm^2 and 2.254 mm^2 and 0.147 mm^2 and 0.134 mm^2. Moreover, in data set [2] (geographic atrophy, individual eyes, after 12 months of treatment, listed as C), the “Area (mm^2), 12 mo” value is 3.256 mm^2 and 3.512 mm^2 and 0.110 mm^2 and 0.171 mm^2. In addition, the IC50 in data set [3] was determined as 3.6 µM. Moreover, the inhibition at 0.01 µM in data set [3] (AMD (GA) subject) was 11.5%; in data set [3] (control subject), 24.1%. Besides, the inhibition at 0.1 µM in data set [3] (AMD (GA) subject) is 18.4%; in data set [3] (control subject), 36.8%. Further, the inhibition at 1 µM in data set [3] (AMD (GA) subject) came to 37%; in data set [3] (control subject), 33.7%. Besides, the “Half-life” value in data set [4] is 5 to 6 h. The Bioavailability in data set [4] is 0.01-0.1%. Besides, the Cmax in data set [4] (read-out: maximum plasma concentration, two capsules (1000 mg each)) is 600 to 1000 nM. Also, the “maximum dose (highest dose evaluated in a repeated-dose clinical trial and found safe and tolerable)” value (from here on “maximum dose”) in data set [5] is on record as 12000 mg/day. The “dose safe and well tolerated” value in data set [5] (review of clinical trials, doses up to, only minimal, mostly gastrointestinal side effects) is 8 to 12 g/day.

Take `O=c1c(O)c(-c2ccc(O)c(O)c2)oc2cc(O)cc(O)c12` [Quercetin, 2-(3,4-dihydroxyphenyl)-3,5,7-trihydroxychromen-4-one;dihydrate]: the half-maximal inhibitory concentration (IC50) in data set [3] was found to be 31 µM. For the same molecule, in data set [3] (AMD (GA) subject), the inhibition at 1 µM turned out to be 6.7%, the inhibition at 5 µM is 43.9% and the inhibition at 10 µM is 27.3%. In addition, in data set [3] (control subject), the inhibition at 1 µM is 36.9%, the inhibition at 5 µM was determined as 38.2% and the inhibition at 10 µM is 24.7%. In data set [5], the “dose found well tolerated, low or no toxicity” value was not above 5 g per day; the “maximum dose” value was 5000 mg/day.

Regarding `Oc1ccc(/C=C/c2cc(O)cc(O)c2)cc1` [Resveratrol, 5-[(1E)2-(4-hydroxyphenyl)ethenyl]-1,3-benzenediol], the IC50 in data set [3] amounted to 36 µM. For the same molecule, in data set [3] (AMD (GA) subject), the inhibition at 1 µM worked out at 8.6%, the inhibition at 5 µM came to 17.1% and the inhibition at 10 µM came out at 18.6%. For the same molecule, in data set [3] (control subject), the inhibition at 1 µM worked out at 19.6%, the inhibition at 5 µM amounted to 24.6% and the inhibition at 10 µM turned out to be 30.5%. Also, in data set [4], the “Half-life” value is 2 to 5 h and the Bioavailability is listed as 0.1-0.4%. In data set [5], the “dose found well tolerated, low or no toxicity” value is on record as not above 5 g per day; the “maximum dose” value was 5000 mg/day.

The IC50 is the concentration needed to halve the response being measured.
